Measured values from patent publication US6174921A, “Antitumor compositions and methods of treatment” (priority 1999, dated 2001).
Converted amounts (≈) assume the structure as drawn.

Legend:
CCRF-CEM cells = assay: In vitro growth inhibition / cytotoxicity against CCRF-CEM human leukemia cells; type: cell-based; conditions: 72 hours of incubation, read-out: IC50 (concentration required for 50% inhibition of growth)
Protocol: The in vitro data were obtained using CCRF-CEM cells, a human leukemia cell line. Foley et al., Cancer, 18:522 (1965). These cells were grown using standard techniques. See, e.g., G. B. Grindey, et al., Journal of Molecular Pharmacoloy, 16:601 (1979). Dose-response curves were generated for various compounds to determine the concentration required for 50% inhibition of growth (IC50). Cluster plates were prepared in duplicate with the compound at various concentrations. Test compounds were dissolved initially in DMSO at a concentration of 4 mg/ml and further diluted with solvent to the desired concentration. Cells in Roswell Park Memorial Institute 1640 media supplemented with 10% dialyzed fetal bovine serum, and 25 mM HEPES buffer were added to the well at a final concentration of 4.8×10^4 cells/well in a total volume of 2.0 ml. After 72 hours of incubation (95% air, 5% CO2), cell numbers were determined on a ZBI Coulter counter. Cell number for indicated controls at the end of incubation was usually (4-6)×10^5 cells/well. Cell viability was also measured by staining with 3-[4,5-dimethylthiazol-2-yl]-2,5-diphenyl-tetrazolium bromide (MTT) using standard techniques. R. I. Freshney, Culture of Animal Cells: A Manual of Basic Technique, 253-254 (2d ed. 1987).
Column 1 refers to the example number of the compound tested; Column 2 depicts the in vitro cytoxicity against CCRF-CEM cells by relating the concentration of the test compound required for 50% inhibition of growth (IC50) of the cells in the well.

6C3HED lymphosarcoma = assay: In vivo antitumor activity in C3H mice bearing 6C3HED lymphosarcoma allograft (Gardner lymphosarcoma), oral
From the text: A second tumor model employed C3H mice bearing the widely used allograft 6C3HED lymphosarcoma, also known as the Gardner lymphosarcoma (GLS). The 6C3HED lymphosarcoma was obtained from the Division of Cancer Treatment, National Cancer Institute, Tumor Bank, maintained at E. G. and G. Mason Research (Worcester, Mass.).
First passage tumors were stored in liquid nitrogen, using standard techniques. The transplanted tumor was reestablished from the Tumor Bank every six months or as needed. The tumor was maintained by serial passage twice weekly in the host mice.
In the procedures utilized here, the tumor was removed from passage animals and minced into 1- to 3-mm cubic fragments using sterile techniques. Tumor pieces were checked for sterility using both Antibiotic Medium 1 and Brain Heart Infusion (Difco, Detroit, Mich.). The xenograft tumor pieces were implanted into the recipient CD1 Nu/Nu mice subcutaneously in an axillary site by trochar. The allograft 6C3HED tumor pieces were implanted into the recipient C3H mice in an analogous fashion.
Drug therapy on the appropriate schedule was initiated seven days after tumor implantation for the HXGC3 xenograft and the day after tumor implantation for the 6C3HED allograft. The compound being tested was mixed with 2.5% Emulphor EL620 from GAF Corporation (1:40 dilution in 0.9% saline). The total dosage volume for each administration was 0.5 ml. All animals were weighed at the beginning and end of administration of the subject compounds. Food and water were provided ad libitum.
Each control group and each dosage level of the treated groups consisted of 9 or 10 mice selected at random from the pool of implanted animals. The formulations were administered orally by gavage with the use of an 18-gauge needle. Compounds were dosed daily for 10 days for the studies using the human tumor xenografts and 8 days for the studies using the allograft.
The xenograft tumor was measured five days after treatment ended with two dimensional measurements (width and length) of the tumor taken using digital electronic calipers interfaced to a microcomputer. J. F. Worzalla, et al., Investigational New Drugs, 8:241-251 (1990). The allograft was measured in a like manner the day after the dosing schedule ended. Tumor weights were calculated from these measurements using the following formula: [formula]
At least one control group of an equal number of mice was treated with the same volume of 2.5% Emulphor only. The percent inhibition is determined by subtracting the ratio of the mean tumor size of the test group relative to the control group from one and multiplying the result by 100.
The results of several experiments in mice bearing the HXGC3 human colon adenocarcinoma and the 6C3HED lymphosarcoma when the Formula I compounds were administered orally are provided in Table II. In the table, Column 1 refers to the example number of the compound tested; Column 2 describes the particular human tumor xenograft or mouse allograft being studied; Column 3 gives the dosage level of the compound of Formula I in milligrams per kilogram of body weight; Column 4 describes the percent inhibition of tumor growth; and Column 5 tallies the number of mice which died during the course of the experiment relative to the total number of animals in the group.

[1] = test system: HXGC3 human colon adenocarcinoma xenograft; assay: In vivo antitumor activity in CD1 Nu/Nu mice bearing HXGC3 human colon adenocarcinoma xenograft, oral; conditions: daily for 10 days
Protocol: One of the tumor models used for showing the anti-neoplastic activity of the sulfonylureas of this invention was the human colon xenograft HXGC3. […] This tumor was obtained from St. Jude's Children's Research Hospital and has been widely used as a human tumor model.
The xenograft tumor was measured five days after treatment ended with two dimensional measurements (width and length) of the tumor taken using digital electronic calipers interfaced to a microcomputer. […] Tumor weights were calculated from these measurements using the following formula: [formula]

[2] = 6C3HED, 1200 mg/kg, oral, daily for 8 days, second entry of Example 1

SMILES: C=Cc1ccc(S(=O)(=O)NC(=O)Nc2ccc(Cl)cc2)cc1 [Example 1, N-[[(4-chlorophenyl)amino]carbonyl]-4-(ethenyl)benzenesulfonamide]
- IC50 (CCRF-CEM cells): 19.8 µg/mL (≈ 58.8 µM)
- Toxic/Total (mice which died / total in group) (6C3HED lymphosarcoma; 6C3HED, 37.5 mg/kg, oral, daily for 8 days, second entry of Example 1): 0/10
- Toxic/Total (mice which died / total in group) (6C3HED lymphosarcoma; 6C3HED, 75 mg/kg, oral, daily for 8 days, second entry of Example 1): 0/10
- Toxic/Total (mice which died / total in group) (6C3HED lymphosarcoma; 6C3HED, 150 mg/kg, oral, daily for 8 days, first entry of Example 1): 0/10
- Toxic/Total (mice which died / total in group) (6C3HED lymphosarcoma; 6C3HED, 150 mg/kg, oral, daily for 8 days, second entry of Example 1): 0/10
- Toxic/Total (mice which died / total in group) (6C3HED lymphosarcoma; 6C3HED, 300 mg/kg, oral, daily for 8 days, first entry of Example 1): 1/10
- Toxic/Total (mice which died / total in group) (6C3HED lymphosarcoma; 6C3HED, 300 mg/kg, oral, daily for 8 days, second entry of Example 1): 1/10
- Toxic/Total (mice which died / total in group) (6C3HED lymphosarcoma; 6C3HED, 600 mg/kg, oral, daily for 8 days, second entry of Example 1): 2/10
- Percent Inhibition of tumor growth (6C3HED lymphosarcoma; [2]): Toxic
- Toxic/Total (mice which died / total in group) (6C3HED lymphosarcoma; [2]): 10/10
- Percent Inhibition of tumor growth (6C3HED lymphosarcoma; po, 37.5 mg/kg, 192 h): 34%
- Percent Inhibition of tumor growth (6C3HED lymphosarcoma; po, 75 mg/kg, 192 h): 66%
- Percent Inhibition of tumor growth (6C3HED lymphosarcoma; po, 600 mg/kg, 192 h): 100%

SMILES: C=Cc1ccc(S(=O)(=O)NC(=O)Nc2ccc(Cl)c(Cl)c2)cc1 [Example 2, N-[[(3,4-dichlorophenyl)amino]carbonyl]-4-(ethenyl)benzenesulfonamide]
- IC50 (CCRF-CEM cells): 9.3 µg/mL (≈ 25.1 µM)
- Percent Inhibition of tumor growth ([1]; 150 mg/kg): 93%
- Toxic/Total (mice which died / total in group) ([1]; 150 mg/kg): 0/7
- Percent Inhibition of tumor growth ([1]; 300 mg/kg): 97%
- Toxic/Total (mice which died / total in group) ([1]; 300 mg/kg): 1/7

SMILES: C=Cc1cccc(S(=O)(=O)NC(=O)Nc2ccc(Cl)cc2)c1 [Example 3, N-[[(4-chlorophenyl)amino]carbonyl]-3-(ethenyl)benzenesulfonamide]
- IC50 (CCRF-CEM cells): 14.4 µg/mL (≈ 42.8 µM)
- Toxic/Total (mice which died / total in group) (6C3HED lymphosarcoma; 6C3HED, 150 mg/kg, oral, daily for 8 days, entry of Example 3): 0/10
- Toxic/Total (mice which died / total in group) (6C3HED lymphosarcoma; 6C3HED, 300 mg/kg, oral, daily for 8 days, entry of Example 3): 0/10
- Percent Inhibition of tumor growth (6C3HED lymphosarcoma; po, 150 mg/kg, 192 h): 60%
- Percent Inhibition of tumor growth (6C3HED lymphosarcoma; po, 300 mg/kg, 192 h): 83%
